The values that follow come from patent US11344510B2, “Arylcyclohexylamine derivatives and their use in the treatment of psychiatric disorders” (Gilgamesh Pharmaceuticals, Inc., priority 2019, dated 2022).

The subject of one data set is CSDS-susceptible mice. Put plainly: Behavioral tests after chronic social defeat stress (CSDS). It counts as in vivo, C57BL/6 mice.
The next data set concerns the target T1, DAT (Homo sapiens, UniProt Q01959).
T1 construct: expressed in transfected cells; host or cells: CHO (uptake)
The data set can be described thus: DAT radioligand binding with [3H]WIN35,428. The protocol:
(§1) Radioligand Binding. Affinity of the test compounds for SERT, NET, and DAT was determined in radioligand binding experiments with [^3H]imipramine, [^3]nisoxetine, and [^3H]WIN35,428, respectively, by WuXi AppTec (Hong Kong) Limited, under the conditions described in Table 15.

The nature of data set [1]: HLM stability (High Activity). In kind it is in vitro ADME. The settings on record: both sexes, human, liver microsomes, pH 7.4, Condition 2 (High Activity), 1.0 mg protein/mL. The procedure: (§2) HLM Stability (High Activity). Pooled HLM from adult male and female donors (XenoTech H0630) were used. Microsomal incubations were carried out in 96-well plates in 5 aliquots of 40 μL, each (one for each time point). Liver microsomal incubation medium consisted of PBS (100 mM, pH 7.4), MgCl2 (3.3 mM), NADPH (3 mM), glucose-6-phosphate (5.3 mM), and glucose-6-phosphate dehydrogenase (0.67 units/mL), with 1.0 mg of liver microsomal protein per mL. Control incubations were performed by replacing the NADPH-cofactor system with PBS. Test compounds (1 μM, final solvent concentration 1.6%) were incubated with microsomes at 37° C., shaking at 100 rpm. Incubations were performed in duplicate. Five time points over 60 minutes were analyzed. The reactions were stopped by adding 12 volumes of 90% acetonitrile-water to incubation aliquots, followed by protein sedimentation by centrifugation at 5500 rpm for 3 minutes. Supernatants were analyzed for parent compound remaining using a fit-for-purpose liquid chromatography-tandem mass spectrometry (LC-MS/MS) method, with authentic samples of each analyte used for identity confirmation.
(§3) Data Analysis. The elimination constant (kel), half-life (t1/2) and intrinsic clearance (Clint) were determined in a plot of […] versus time, using linear regression analysis.

The nature of data set [2]: MLM stability (High Activity). In kind it is in vitro ADME, BALB/c mice. The settings on record: male, BALB/c, mouse, liver microsomes, pH 7.4, Condition 2 (High Activity), 1.0 mg protein/mL. The procedure:
as §2, with “MLM” for “HLM”, “from” for “from adult”, “BALB/c mice” for “and female donors”, “M3000)” for “H0630)”, “μL” for “μL,”, “9” for “12”
as §3
Background: Liver microsomes are a subcellular fraction often used to study metabolism.

In another data set the target is T2, NET (Homo sapiens, UniProt P23975).
T2 construct: expressed in transfected cells; host or cells: HEK293
The data set can be described thus: NET radioligand binding with [3H]nisoxetine. The procedure: as §1

For data set [3], the target named is T3, serotonin transporter (SERT) (Homo sapiens, UniProt P31645).
T3 construct: expressed in transfected cells; host or cells: HEK293
Put plainly: Fluorescent substrate uptake inhibition, SERT. It counts as cell-based. The settings on record: for inhibition at 10 µM: HEK293 cells expressing SERT.

Data set [4] has as its target T4, norepinephrine transporter (NET) (Homo sapiens, UniProt P23975).
T4 construct: expressed in transfected cells; host or cells: HEK293
The data set can be described thus: Fluorescent substrate uptake inhibition, NET. The settings on record: for inhibition at 10 µM: HEK293 cells expressing NET. In kind it is cell-based.

In the next data set the target is T5, SERT (Homo sapiens, UniProt P31645).
T5 construct: expressed in transfected cells; host or cells: HEK293
Put plainly: SERT radioligand binding with [3H]imipramine. The protocol: as §1

Data set [5] deals with MK-801 binding site of the N-methyl-D-aspartate receptor (NMDAR). The data set can be described thus: NMDAR radioligand binding with [3H]MK-801, Method B. The settings on record: MK-801 site, Method B, male Sprague Dawley rat cortex, 5.0 nM [3H]MK-801; read-out: NMDAR Ki ± SEM. On the set-up: species or system Sprague Dawley rat. The procedure: Radioligand Binding—Method B. Affinity of the test compounds for NMDAR was determined in radioligand binding experiments with [^3H]MK-801 by WuXi AppTec (Hong Kong) Limited, under the conditions described in Table 13.

For data set [6], the target named is T6, dopamine transporter (DAT) (Homo sapiens, UniProt Q01959).
T6 construct: expressed in transfected cells; host or cells: CHO (uptake)
Put plainly: Fluorescent substrate uptake inhibition, DAT. The following applies: for inhibition at 10 µM: CHO cells expressing DAT. It counts as cell-based.

Data set [7] has as its target T7, vesicular monoamine transporter 2 (VMAT2) (Homo sapiens, UniProt Q05940).
T7 construct: expressed in transfected cells
The data set can be described thus: Fluorescent substrate uptake inhibition, VMAT2. The following applies: 10 μM, transfected cells. In kind it is cell-based.

Data set [8] is described as follows: RLM stability (Low Activity). It counts as in vitro ADME, Sprague Dawley rats. The following applies: male, Sprague Dawley, rat, liver microsomes, pH 7.4, Condition 1 (Low Activity), 0.50 mg protein/mL. A digest of the protocol:
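Pooled male Sprague Dawley rat liver microsomes (0.50 mg/mL) in PBS pH 7.4 with 1 mM MgCl2 and 1 mM NADPH; compound 1 μM, 1.0% solvent, 37° C. Six time points over 60 min, parent remaining by LC-MS/MS; kel, t1/2 and Clint from linear regression of ln(AUC) versus time.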

For data set [9], the system named is monoamine transporters, MATs (SERT, NET, DAT, VMAT2). Put plainly: Monoamine uptake inhibition, monoamine transporters collectively. In kind it is cell-based. The following applies: in words. The procedure: The ability of the compounds of the present invention to inhibit uptake of monoamines by the serotonin transporter (SERT), norepinephrine transporter (NET), dopamine transporter (DAT), and vesicular monoamine transporter 2 (VMAT2) (collectively monoamine transporters, MATs) was measured using fluorescent substrate uptake assays in transfected cells (Table 14). The binding affinities of select compounds were also determined in radioligand displacement assays at SERT, NET, and/or DAT (Table 14).
Uptake Inhibition. The ability of test compounds to block monoamine uptake by SERT, NET, DAT, and VMAT2 was determined using the Neurotransmitter Transporter Uptake Assay Kit manufactured by Molecular Devices (Cat #R8173). Briefly, stably transfected cells expressing the MAT of interest (HEK293 cells for SERT and NET; CHO cells for DAT) were grown and plated into 384-well plates at a concentration of 20,000 cells per well. Plates were then incubated for 16-20 h at 37° C. and 5% CO2. The medium was then aspirated and replaced with 25 μL of assay buffer (20 mM HEPES in HBSS, containing 0.1% BSA) containing the test compounds at the appropriate concentrations. Plates were then centrifuged at 300 rpm for 15 s and then incubated at 37° C. for 30 minutes. At this time, 25 μL of the proprietary fluorescent dye solution was added, the plates were incubated at 37° C. for 60 minutes, and then fluorescence was quantified on a plate reader (excitation wavelength=440 nm, emission wavelength=520 nm). The proprietary dye solution contains a mixture of 1) a fluorescent dye that mimics the endogenous substrates of MATs and is thereby actively transported to the intracellular compartment in the absence of an inhibitor and 2) a masking dye that inhibits the fluorescence of dye 1 in the extracellular compartment. Therefore, the overall fluorescence of the system increases as the fluorescent dye is transported into the cells.

Data set [10] in a line: HLM stability (Low Activity, Alternative Method). It counts as in vitro ADME. The settings on record: both sexes, human, liver microsomes, pH 7.4, Condition 1 column, values marked *: Low Activity, 0.50 mg protein/mL. In a few lines:
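Pooled male and female human liver microsomes (0.50 mg/mL) in 100 mM PBS pH 7.4 with 1 mM MgCl2 and 1 mM NADPH, compound 1 μM (1.0% solvent), 37° C with shaking, six time points over 60 min. Parent remaining measured by LC-MS/MS; kel, t1/2 and Clint from linear regression of ln(AUC) versus time.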

Data set [11] can be described thus: MLM stability (Low Activity). The following applies: male, CD-1, mouse, liver microsomes, pH 7.4, Condition 1 (Low Activity), 0.50 mg protein/mL. It counts as in vitro ADME, CD-1 mice. In a few lines:
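Pooled male CD-1 mouse liver microsomes (0.50 mg/mL) with 1 μM compound and 1 mM NADPH in 100 mM PBS pH 7.4 with 1 mM MgCl2, 37 °C, six time points over 60 min. Parent remaining by LC-MS/MS; kel, t1/2 and Clint from linear regression of ln(AUC) versus time.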

Data set [12] addresses MK-801 binding site of the N-methyl-D-aspartate receptor (NMDAR). Put plainly: NMDAR radioligand binding with [3H]MK-801, Method A. The following applies: for Ki: MK-801 site, Method A, Wistar rat brain (minus cerebellum), 5.0 nM [3H]MK-801, read-out: NMDAR Ki ± SEM. On the set-up: species or system Wistar rat. The protocol: Radioligand Binding—Method A. Affinity of the test compounds for NMDAR was determined in radioligand binding experiments with [^3H]MK-801 by Eurofins Panlabs, Inc., using methods adapted from the literature (Javitt et al. 1987; Reynolds et al. 1989) and under the conditions described in Table 12.

The mark [13] stands for this setting: 14.4 mg/kg i.p. as hydrogen tartrate salts.

“Also recorded” adds a separate entry of the source.

T3 sequence (P31645 whole entry, species assumed): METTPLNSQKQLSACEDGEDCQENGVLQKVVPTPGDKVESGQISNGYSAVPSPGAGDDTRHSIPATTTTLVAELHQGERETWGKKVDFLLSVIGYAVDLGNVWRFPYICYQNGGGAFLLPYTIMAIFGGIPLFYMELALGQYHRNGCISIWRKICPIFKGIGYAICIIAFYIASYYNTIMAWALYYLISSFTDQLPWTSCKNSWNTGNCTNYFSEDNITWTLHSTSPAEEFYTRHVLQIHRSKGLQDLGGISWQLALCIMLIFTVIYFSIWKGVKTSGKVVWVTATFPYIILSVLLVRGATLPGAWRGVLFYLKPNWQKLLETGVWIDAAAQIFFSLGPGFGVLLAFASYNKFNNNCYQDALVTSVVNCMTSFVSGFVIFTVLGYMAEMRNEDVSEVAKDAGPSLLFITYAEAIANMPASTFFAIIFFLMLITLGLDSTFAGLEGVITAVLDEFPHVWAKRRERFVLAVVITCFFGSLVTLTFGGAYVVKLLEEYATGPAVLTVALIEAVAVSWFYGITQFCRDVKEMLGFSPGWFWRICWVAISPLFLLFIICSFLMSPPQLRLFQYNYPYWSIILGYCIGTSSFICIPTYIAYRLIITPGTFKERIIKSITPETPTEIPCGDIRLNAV
T7 sequence (Q05940 whole entry, species assumed): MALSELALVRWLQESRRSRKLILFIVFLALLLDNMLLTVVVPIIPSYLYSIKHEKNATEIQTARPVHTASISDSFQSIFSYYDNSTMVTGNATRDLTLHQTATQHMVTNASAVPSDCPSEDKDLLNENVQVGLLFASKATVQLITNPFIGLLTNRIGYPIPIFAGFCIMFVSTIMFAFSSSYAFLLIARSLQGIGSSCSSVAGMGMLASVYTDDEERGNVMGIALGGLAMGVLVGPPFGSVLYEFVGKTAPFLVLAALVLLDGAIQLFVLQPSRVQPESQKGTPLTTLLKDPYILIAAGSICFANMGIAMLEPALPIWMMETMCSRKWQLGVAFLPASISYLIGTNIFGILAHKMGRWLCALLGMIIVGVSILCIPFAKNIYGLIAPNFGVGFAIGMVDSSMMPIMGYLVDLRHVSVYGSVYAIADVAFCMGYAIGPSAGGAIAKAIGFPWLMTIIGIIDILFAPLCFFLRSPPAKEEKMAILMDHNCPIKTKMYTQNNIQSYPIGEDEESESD
T6 sequence (Q01959 whole entry, species assumed): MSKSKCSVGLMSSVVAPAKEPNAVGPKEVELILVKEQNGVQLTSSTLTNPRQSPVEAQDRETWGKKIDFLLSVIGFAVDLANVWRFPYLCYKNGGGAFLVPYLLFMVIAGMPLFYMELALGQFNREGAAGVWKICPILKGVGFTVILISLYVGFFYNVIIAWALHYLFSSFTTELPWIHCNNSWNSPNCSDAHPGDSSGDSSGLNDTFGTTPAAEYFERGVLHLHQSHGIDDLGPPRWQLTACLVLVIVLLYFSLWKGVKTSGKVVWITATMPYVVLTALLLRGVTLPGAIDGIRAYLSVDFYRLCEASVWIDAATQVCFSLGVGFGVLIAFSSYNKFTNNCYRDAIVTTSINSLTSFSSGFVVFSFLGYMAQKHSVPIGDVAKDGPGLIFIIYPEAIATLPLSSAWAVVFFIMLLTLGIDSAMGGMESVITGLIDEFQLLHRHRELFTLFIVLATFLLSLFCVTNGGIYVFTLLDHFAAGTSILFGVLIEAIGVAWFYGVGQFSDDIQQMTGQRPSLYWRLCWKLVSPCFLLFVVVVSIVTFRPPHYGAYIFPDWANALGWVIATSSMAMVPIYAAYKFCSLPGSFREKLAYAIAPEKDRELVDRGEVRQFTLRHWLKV
T4 sequence (P23975 whole entry, species assumed): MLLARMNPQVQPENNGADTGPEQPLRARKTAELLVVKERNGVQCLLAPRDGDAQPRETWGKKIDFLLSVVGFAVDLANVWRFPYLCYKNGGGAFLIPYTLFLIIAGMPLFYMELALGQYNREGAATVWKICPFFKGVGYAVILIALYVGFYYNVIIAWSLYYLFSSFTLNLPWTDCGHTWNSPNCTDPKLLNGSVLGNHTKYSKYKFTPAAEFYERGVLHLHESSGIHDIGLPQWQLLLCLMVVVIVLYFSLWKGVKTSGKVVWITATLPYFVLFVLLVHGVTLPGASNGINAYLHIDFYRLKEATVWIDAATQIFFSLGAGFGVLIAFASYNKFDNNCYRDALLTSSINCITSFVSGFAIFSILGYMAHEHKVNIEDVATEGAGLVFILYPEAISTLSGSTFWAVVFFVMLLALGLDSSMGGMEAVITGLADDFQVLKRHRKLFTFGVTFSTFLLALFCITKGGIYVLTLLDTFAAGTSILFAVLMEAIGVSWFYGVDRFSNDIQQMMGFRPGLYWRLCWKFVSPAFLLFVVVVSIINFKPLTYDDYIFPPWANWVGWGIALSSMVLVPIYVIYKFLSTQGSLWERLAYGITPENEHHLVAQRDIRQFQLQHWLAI
T5 sequence (P31645 whole entry, species assumed): as the sequence (P31645 whole entry, species assumed) above
T1 sequence (Q01959 whole entry, species assumed): as the sequence (Q01959 whole entry, species assumed) above
T2 sequence (P23975 whole entry, species assumed): as the sequence (P23975 whole entry, species assumed) above

Regarding `CNC1(c2ccccc2I)CCCCC1=O` (racemic) [Compound 37rac, 2-(2-Iodophenyl)-2-(methylamino)cyclohexan-1-one], the “antidepressant-like activity in behavioral tests after CSDS (TST, FST, SPT)” value (“antidepressant-like activity” for short) in the data set with CSDS-susceptible mice (10 mg/kg i.p., single dose) was “not effective”; with CSDS-susceptible mice (30 mg/kg i.p., single dose), “only partially effective”.

The term Ki denotes the dissociation constant of the complex between target and ligand, obtained from inhibition or displacement. For orientation: half-life means the time in which the quantity being followed falls by half. A lower half-life goes with rapid decline. One may read the microsomal CLint as the rate of metabolic loss divided by the concentration. What is called IC50 is the concentration at which inhibition is half-maximal. The term inhibition denotes the relative decrease from the control value, in per cent. As for `O=C1CCCC[C@]1(c1ccccc1)N1CCCCC1` [Compound 26R, (R)-2-phenyl-2-(piperidin-1-yl)cyclohexan-1-one], the Ki was 70.4 µM on DAT, greater than 87.4 µM at NET, 22.5 µM at SERT and 3.7 µM in [5]. For the same molecule, the half-life at 1 μM in data set [1] turned out to be 1.05 h; in data set [2] it was 0.177 h. For the same molecule, the microsomal CLint at 1 μM in [1] was determined as 11 µL/min/mg; in data set [2] it was 65 µL/min/mg. Besides, the IC50 is greater than 100 µM in [3], 23.7 µM in [4] and 5 µM in data set [6]. In addition, the inhibition at 10 µM in data set [3] was 30.4%; in data set [4], 19.5%; in data set [6], 58%; in [7], -12.3%. The “inhibitory activity at DAT” value in data set [6] (in words) is “significant inhibitory activity at DAT”.

`CNC1(c2ccc(F)cc2)CCCCC1=O` (racemic) [Compound 18rac, 2-(4-fluorophenyl)-2-(methylamino)cyclohexan-1-one]: the inhibition at 10 µM in [3] is 25.2%; in data set [4], 16%; in data set [6], 21.4%; in [7], 20.2%. The microsomal CLint at 1 μM in data set [8] is 19.6 µL/min/mg; in [10], less than 9.6 µL/min/mg; in data set [11] it was 13.7 µL/min/mg. Further, the Ki in data set [5] came out at 4.5 µM. Besides, the “selectivity for NMDAR (over MATs)” value in data set [9] is given as “greater selectivity for NMDAR”. Also, in [10], the half-life at 1 μM is greater than 2.42 h.

With `CN[C@]1(c2ccccc2F)CCCCC1=O` [Compound 35S, (S)-2-(2-Fluorophenyl)-2-(methylamino)cyclohexan-1-one], the Ki in [12] turned out to be 0.79 ± 0.21 µM. In the data set with CSDS-susceptible mice (setting [13]), the “antidepressant-like activity” value is given as “induced antidepressant-like effects”.

Regarding `O=C1CCCC[C@@]1(c1ccccc1)N1CCCCC1` [Compound 26S, (S)-2-phenyl-2-(piperidin-1-yl)cyclohexan-1-one], the Ki on DAT was 79.5 µM; on NET, greater than 87.4 µM; on SERT it was 8.2 µM; in data set [5] it was 0.52 µM. For the same molecule, the half-life at 1 μM in [1] was 1.68 h; in data set [2], 0.205 h. For the same molecule, the values for the microsomal CLint at 1 μM in [1] and in data set [2] were 7 µL/min/mg and 56 µL/min/mg, respectively. In addition, the IC50 was 44 µM in [3], 8.9 µM in data set [4] and 16.4 µM in [6]. Besides, the inhibition at 10 µM in [3] was determined as 43%; in data set [4] it was 16.1%; in data set [6] it was 33.7%; in [7] it was 22.9%.

Take `CNC1(c2ccccc2Cl)CCCCC1=O` (racemic) [racemic ketamine, reference compound]: in the data set with CSDS-susceptible mice (10 mg/kg i.p., single dose), the “antidepressant-like activity” value was “effective”.

For the molecule `CN[C@@]1(c2ccccc2F)CCCCC1=O` [Compound 35R, (R)-2-(2-Fluorophenyl)-2-(methylamino)cyclohexan-1-one], in data set [12], the inhibition constant Ki came to 3.91 ± 0.4 µM. Further, the “NMDAR binding, comparison in words” value in [12] (vs 35S, 35rac, racemic ketamine and R-ketamine) is “weaker NMDAR binding”. Further, the “antidepressant-like activity” value in the data set with CSDS-susceptible mice (setting [13]) was “induced antidepressant-like effects; also recorded: more robust and longer lasting”.
